Counter-ions that a name gives are not always drawn.
COc1cc(C2=CCCCC2)c(Cl)cc1C(=O)N1Cc2ccc(C(=O)N(C)Cc3cccnc3)n2Cc2ccccc21 (as salt: tartaric acid salt) (hydrate or solvate) [Example 2, 10-(5-Chloro-4-cyclohex-1-en-1-yl-2-methoxybenzoyl)-N-methyl-N-(pyridin-3-ylmethyl)-10,11-dihydro-5H-pyrrolo[2,1-c][1,4]benzodiazepine-3-carboxamide L-(+)-tartaric acid salt hemihydrate]
melting point: 138 to 177 °C

— US20030055046A1, “Novel pyrido cyclohexenyl phenyl carboxamides tocolytic oxytocin receptor antagonists” (Wyeth, priority 2001, published 2003)
